Legend:
[1] = system: human promyelocytic leukemia HL-60; assay: MTT method: cell growth suppressing / apoptosis-inducing activity; type: cell-based; details: for apoptosis-inducing activity / cancer cell growth suppressing activity: HL-60, MTT method of Example 1, 48 hours; for cancer cell growth suppressing activity and apoptic body formation: HL-60, MTT method of Example 4-(2), sample in 50% ethanol, 16 hours
Protocol: Heated and non-heated substances of each of them were sterilized by a membrane filter of 0.22 μm to prepare samples for the apoptosis-inducing activity. Those samples were diluted with aseptic distilled water to an extent of 2-, 4-, 8-, 16- and 32-fold, their activity for suppressing the cell growth to the human promyelocytic leukemia HL-60 was measured as follows and their intensity or the apoptosis-inducing activity was compared.
Thus, 10 μl of each of the diluted solutions or 10 μl of aseptic distilled water were placed in a well of a 96-well microtiter plate. Then 90 μl of an RPMI 1640 medium (manufactured by Nissui) containing 10% of fetal bovine serum (manufactured by Gibco) which contained 5000 HL-60 cells (ATCC CCL240) were added thereto and an incubation was carried out at 37° C. for 48 hours in the presence of 5% carbon dioxide gas. After observing the shape of the cells under an optical microscope, 10 μl of a phosphate-buffered aqueous saline solution containing 5 mg/ml of 3-(4,5-dimethylthiazol-2-yl)-2,5-diphenyltetrazolium bromide (MTT; manufactured by Sigma), an incubation was continued for four hours more and state of growth of cells and formation of formazan produced in the cells were observed under a microscope. Further, 100 μl of 2-propanol containing 0.04N HCl were added thereto followed by well stirring and the absorbance at 590 nm was measured and used as a degree of growth of cells (an MTT method).
The solvent of the fraction was appropriately evaporated to substitute with a 50% aqueous solution of ethanol and the activity for suppressing the growth of cancer cells was measured by an MTT method mentioned in Example 1 except that the sample was diluted to a two-fold series using a 50% aqueous solution of ethanol and 2 μl of each of the diluted solutions or 2 μl of a 50% aqueous solution of ethanol were placed in a well of a flat-bottom 96-well microplate. Time for incubation was 16 hours.

HL-60 cells = assay: analysis of fragmentation of DNA; type: cell-based, human
Protocol: (2) HL-60 cells which were incubated on an RPMI 1640 medium containing 10% of fetal bovine serum processed at 56° C. for 30 minutes were suspended in an RPMI 1640 medium to make 2.5×10^5 cells/5 ml.
To 5 ml the suspension were added 10 μl of 12.5 mM, 25 mM, 50 mM or 100 mM of a 70% ethanolic solution of 4,5-dihydroxy-2-pentenal, 0.05 mM, 0.5 mM, 5 mM or 50 mM of a 70% ethanolic solution of 4-hydroxy-2-cyclopenten-1-one, 5 mM, 10 mM or 20 mM of a 70% ethanolic solution of 4-(9-adeninyl)-2-cyclopenten-1-one prepared in Example 4-(4), 2.5 mM, 5 mM, 15 mM or 25 mM of a 70% ethanolic solution of 4-(9-guaninyl)-2-cyclopenten-1-one prepared in Example 4-(5) 75 mM, 150 mM or 300 mM of a 70% ethanolic solution of 1,5-epoxy-1-hydroxy-3-penten-2-one prepared in Example 5-(2) or 5 mM, 25 mM or 50 mM of a 70% ethanolic solution of 2-(trans-3,4-dihydroxy-1-butenyl)-4-(trans-2-formylvinyl)-1,3-dioxolane prepared in Example 6-(2) followed by incubating at 37° C. in the presence of 5% of carbon dioxide gas for 24 hours and 48 hours and the resulting cells were subjected to a measurement of apoptosis cells using FACScan by a method mentioned in pages 129-130 of “Experimental Protocol Series—Apoptosis Experiment Protocol” which was an extra issue of “Saibo Kogaku (Cell Technology)” (published by Shujunsha in 1994) and also to a measurement of analysis of fragmentation of DNA by a method mentioned in page 61-63 of “Biomanual UP Series—New Experimental Methods for Apoptosis” (published by Yodosha in 1995).

[2] = system: hIGF-1 production in Hs68 cells; assay: induction of hIGF-1 production, ELISA; type: cell-based, human; details: for time at which the inducing activity of the hIGF production became maximum: 100 μM or more
Protocol: Hs 68 cells (ATCC CRL-1635) which were human […] were incubated on a D-MEM medium (manufactured by Gibco BRL) containing 10% of fetal bovine serum (FBS manufactured by BioWhittaker) at 37° C. in the presence of 5% of CO2 until the cells were saturated in the culture medium, a trypsin-EDTA solution (manufactured by BioWhittaker) was suspended in the above medium to make 3×10^5 cells/ml and each 200 μl of the suspension were placed in each well of a 96-well microtiter plate. After five days from the incubation, the medium was discarded at the stage where the cells were almost saturated in the culture medium and a medium containing 5, 10, 20, 40, 100 or 200 μM of 4,5-dihydroxy-2-pentenal or 4-hydroxy-2-cyclopenten-1-one was added thereto. A time course of 96 hours was adopted and, every 24 hours, the supernatant liquid of the incubated medium was recovered and the influence of 4,5-dihydroxy-2-pentenal and 4-hydroxy-2-cyclopenten-1-one on the induction of hIGF-1 production in Hs68 cells was measured using an ELISA-kit for hIGF-1 (manufactured by Diagnostic System Labo).

mice = assay: acute toxicity, single oral administration; type: in vivo; details: single oral administration of 100 mg/kg
Protocol: When a physiologically active effective dose of the heat-treated product of the present invention and partially purified product thereof and the compound of the present invention are/is administered to mice, no acute toxicity is noted.

| Structure (SMILES) | cancer cell growth suppressing activity and apoptic body formation [1] | Inducing Activity of the hIGF-1 Production ([2]; 40 μM, 24 hours) [ng/mL] | Inducing Activity of the hIGF-1 Production ([2]; 40 μM, 48 hours) [ng/mL] | Inducing Activity of the hIGF-1 Production ([2]; 40 μM, 72 hours) [ng/mL] | Inducing Activity of the hIGF-1 Production ([2]; 40 μM, 96 hours) [ng/mL] | time at which the inducing activity of the hIGF production became maximum [2] [h] | Inducing Activity of the hIGF-1 Production ([2]; 100 μM, 24 hours) [ng/mL] | Inducing Activity of the hIGF-1 Production ([2]; 100 μM, 48 hours) [ng/mL] | Inducing Activity of the hIGF-1 Production ([2]; 100 μM, 72 hours) [ng/mL] | Inducing Activity of the hIGF-1 Production ([2]; 100 μM, 96 hours) [ng/mL] | Inducing Activity of the hIGF-1 Production ([2]; 200 μM, 24 hours) [ng/mL] | Inducing Activity of the hIGF-1 Production ([2]; 200 μM, 48 hours) [ng/mL] | Inducing Activity of the hIGF-1 Production ([2]; 200 μM, 72 hours) [ng/mL] | Inducing Activity of the hIGF-1 Production ([2]; 200 μM, 96 hours) [ng/mL] | death (mice) | also measured |
| --- | --- | --- | --- | --- | --- | --- | --- | --- | --- | --- | --- | --- | --- | --- | --- | --- |
| O=CC=CC(O)CO (single isomer, unassigned) [4,5-dihydroxy-2-pentenal, trans-4,5-dihydroxy-2-pentenal] | strong activity | 0 | 0 | 0 | 0 | 24 | 15.3 | 10.0 | 5.2 | 4.6 | 11.3 | 11.1 | 9.9 | 4.5 | no case of death | apoptosis-inducing activity / cancer cell growth suppressing activity [1]: strong; apoptosis-inducing activity / cancer cell growth suppressing activity ([1]; listed as fraction 4): strong activity; fragmentation of DNA (HL-60 cells; HL-60, 50 μM final concentration): confirmed; fragmentation of DNA (HL-60 cells; HL-60, 100 μM final concentration): confirmed; fragmentation of DNA (HL-60 cells; HL-60, 200 μM final concentration): confirmed |
| Nc1nc2c(ncn2C2C=CC(=O)C2)c(=O)[nH]1 (stereo not drawn) [4-(9-guaninyl)-2-cyclopenten-1-one] |  |  |  |  |  |  |  |  |  |  |  |  |  |  |  | concentration of dried product showing deformation and apoptic body formation in the cells ([1]; HL-60, MTT assay): about 13 μg/ml |
| O=C1C=CC(O)C1 (stereo not drawn) [4-hydroxy-2-cyclopenten-1-one] | strong activity | 0 | 0 | 0 | 0 | 24 | 39.9 | 10.0 | 9.6 | 4.4 | 37.9 | 10.4 | 9.9 | 4.2 | no case of death | fragmentation of DNA (HL-60 cells; HL-60, 10 μM final concentration): confirmed; hIGF-1 inducing activity [2]: stronger than that of 4,5-dihydroxy-2-pentenal |
| O=C/C=C/C1COC(/C=C/C(O)CO)O1 (stereo not drawn) [2-(trans-3,4-dihydroxy-1-butenyl)-4-(trans-2-formylvinyl)-1,3-dioxolane] | noted |  |  |  |  |  |  |  |  |  |  |  |  |  |  |  |

— patent publication US6809091B1, “Substances capable of inducing apoptosis” (Takara Bio Inc., priority 1998, dated 2004)
